Assays:
Type in all cases: cell-based
Tel-Jak3 = target: T1, Tel-Jak3 (Homo sapiens, UniProt P52333); assay: Cellular growth inhibition assay (MTT), Tel-Jak3 transformed BaF3 cell line; settings: 40 hr incubation, read-out: Jak3: growth inhibitory activity (>50%) in transformed cell line Tel-Jak3
T1 construct: TEL (ETV6, human P41212) N-terminal part encoded by nucleotides 1-487 of TEL; expressed in transfected cells; host or cells: BaF3 (murine) bearing pTET-off, transfected with pTELJAK3 (pTRE2 vector); the other entry of the earlier key: ETV6 (P41212, Transcription factor ETV6)
T1 sequence (P52333 with tags, fused parts or gaps): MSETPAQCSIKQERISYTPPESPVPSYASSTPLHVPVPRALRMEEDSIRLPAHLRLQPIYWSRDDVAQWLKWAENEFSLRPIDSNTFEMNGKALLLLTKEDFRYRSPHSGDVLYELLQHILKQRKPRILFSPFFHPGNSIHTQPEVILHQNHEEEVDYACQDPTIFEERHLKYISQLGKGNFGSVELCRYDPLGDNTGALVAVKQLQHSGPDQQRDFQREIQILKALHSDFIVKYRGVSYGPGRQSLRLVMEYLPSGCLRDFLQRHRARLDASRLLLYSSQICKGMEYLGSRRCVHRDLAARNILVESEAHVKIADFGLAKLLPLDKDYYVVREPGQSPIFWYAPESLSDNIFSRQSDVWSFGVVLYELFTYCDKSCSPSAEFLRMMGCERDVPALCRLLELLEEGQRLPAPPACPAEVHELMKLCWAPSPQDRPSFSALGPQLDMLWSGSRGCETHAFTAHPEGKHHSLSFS
Source text: (§1) The coding region encompassing nucleotides 1–487 of TELwas amplified by PCR using the oligonucleotides 5TEL (5′-GGAGGATCCTGATCTCTCTCGCTGTGAGAC-3′) and 3TEL (5′-AGGC GTCGACTTCTTCTTCATGGTTCTG-3′) and U937 mRNA as template. A BamHI site was present into the 5TEL Primer, a SalI site was incorporated into the 3TEL primer. The regions encompassing the kinase domains of JAK2 (nucleotides 2994–3914; JAK2F 5′-ACGC GTCGACGGTGCCTTTGAAGACCGGGAT-3′; JAK2R 5′-ATAGTTTAGCGGCCGCTCAGAATGAAGGTCATTT-3′) and JAK3 (nucleotides 2520–3469; JAK3F 5′-GAAGTCGACTATGCCTGCCAAGACCCCACGATCTT-3′; JAK3R 5′-GGATCTAGACTATGAAAAGGACAGGGAGTGGTGTTT-3′) were generated by PCR using Taq DNA Polymerase (Gibco/BRL) and U937 mRNA as template. A SalI site was incorporated into the forward primer of JAK2 and JAK3, a NotI site was incorporated into the JAK2 reverse primer and a Xba I site was added to the reverse primer of JAK3.
(§2) A TEL/Jak2 fusion was generated by digestion of the TELPCR product with BamHI/SalI, digestion of the JAK2 PCR product with SalI/NotI followed by ligation and subcloning into the mammalian expression Vector pTRE 2 (Clontech) digested with BamHI-NotI (pTELJAK2). For JAK3 SalI/NotI cleaved kinase domain PCR product was ligated with BamHI/SalI cleaved TELproduct followed by ligation into BamHI/NotI cleaved pTRE2 (pTELJAK3).
(§3) The growth factor dependent myelomonocytic cell line BaF3 bearing the pTET-off plasmid (Clontech) was transfected with either pTELJAK2 or pTELJAK3 and the cells selected for factor independent growth. BaF 3 wild type cells were cultured in DMEM 10% FCS, 10% WEHI 3B conditioned medium. BaF3 TELJAK cells were cultured in DMEM 10% Tet-System Approved FBS (without WEHI 3B conditioned medium).
(§4) Cell suspensions were prepared by harvesting cells from culture. (Cells used in this test should be in later log phase growth and high viability.) Cells were diluted in correct growth medium to 1.1×final concentration (from 50000 cell/mL to 200,000 cell/mL, depending on cell line).
(§5) Compounds to be tested were added (10 μL, 10×final concentration) to a flat bottom 96-well plate. The cellular suspension (90 μL per well) was added, and the plate incubated for 40 hr at 37° C., 5% CO2. MTT (20 μL per well, 5 mg/mL in PBS) was added and the plates were returned to the incubator for a further 6 hours. Lysis buffer (100 μL per well, 10% SDS, 0.01N HCl) was added and the plate stored in the incubator overnight. The plate was then read at 590 nm.

Tel-Jak2 = target: T2, Tel-Jak2 (Homo sapiens, UniProt O60674); assay: Cellular growth inhibition assay (MTT), Tel-Jak2 transformed BaF3 cell line; settings: 40 hr incubation, read-out: Jak2: growth inhibitory activity (>50%) in transformed cell line Tel-Jak2
T2 construct: The regions encompassing the kinase domains of JAK2 (nucleotides 2994–3914); TEL (ETV6, human P41212) N-terminal part encoded by nucleotides 1-487 of TEL; expressed in transfected cells; host or cells: BaF3 (murine) bearing pTET-off, transfected with pTELJAK2 (pTRE2 vector); the other entry of the earlier key: ETV6 (P41212, Transcription factor ETV6)
T2 sequence (O60674 with tags, fused parts or gaps): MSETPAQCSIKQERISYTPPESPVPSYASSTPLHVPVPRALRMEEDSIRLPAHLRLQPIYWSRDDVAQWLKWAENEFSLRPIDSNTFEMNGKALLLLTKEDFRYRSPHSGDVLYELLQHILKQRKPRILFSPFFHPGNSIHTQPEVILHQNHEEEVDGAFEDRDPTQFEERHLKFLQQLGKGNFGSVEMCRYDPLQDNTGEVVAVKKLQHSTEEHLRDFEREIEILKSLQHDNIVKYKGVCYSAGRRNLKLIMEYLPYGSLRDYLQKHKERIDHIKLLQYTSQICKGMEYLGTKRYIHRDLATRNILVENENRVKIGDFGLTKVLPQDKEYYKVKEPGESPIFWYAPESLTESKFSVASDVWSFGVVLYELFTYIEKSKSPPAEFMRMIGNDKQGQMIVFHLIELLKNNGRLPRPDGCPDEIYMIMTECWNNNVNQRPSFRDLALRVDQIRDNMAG
Source text: as §1, §2, §3, §4, §5

DU145 = assay: Cellular growth inhibition assay (MTT), DU145 cells; settings: Homo sapiens, DU-145, 40 hr incubation, read-out: DU145: growth inhibitory activity
Experimental: as §4, §5

| SMILES | inhibition at 50 µM (Tel-Jak3) | inhibition at 50 µM (Tel-Jak2) | inhibition at 50 µM (DU145) |
| --- | --- | --- | --- |
| COc1cc(-c2cncc(N[C@H]3CCc4ccccc43)n2)ccc1O [Chemistry 68] | > 50% | > 50% |  |
| COc1cc(-c2cncc(N[C@H]3CCCc4ccccc43)n2)ccc1O [Chemistry 87] | < 50% | > 50% |  |
| COc1ccc([C@H](C)Nc2cncc(-c3ccc(O)c(OC)c3)n2)cc1 [Chemistry 117] | > 50% | > 50% | < 50% |
| COc1cc(-c2cncc(N[C@@H](C)c3ccccc3)n2)ccc1O [Chemistry 118] | > 50% | > 50% | > 50% |
| CC[C@H](Nc1cncc(-c2ccc(O)c(OC)c2)n1)c1ccccc1 [Chemistry 119] | > 50% | > 50% | > 50% |
| COc1cc(-c2cncc(Nc3cc(Cl)ccc3C)n2)ccc1O [Chemistry 130] | < 50% | > 50% | > 50% |
| COc1cc(-c2cncc(NCc3cccnc3)n2)ccc1O [Chemistry 136] | > 50% | > 50% | > 50% |
| COc1cc(-c2cncc(N(C)Cc3ccccc3)n2)ccc1O [Chemistry 137] | > 50% | > 50% | < 50% |
| COc1cc(-c2cncc(NCc3ccc(Cl)c(Cl)c3)n2)ccc1O [Chemistry 139] | > 50% | > 50% | < 50% |
| COc1cc(-c2cncc(NCc3ccco3)n2)ccc1O [Chemistry 141] | > 50% | > 50% | > 50% |
| COc1cc(-c2cncc(N(C)[C@@H](C)c3ccccc3)n2)ccc1O [Chemistry 142] | > 50% | > 50% | < 50% |
| COc1cc(-c2cncc(Nc3cc(F)ccc3C)n2)ccc1O [Chemistry 144] | > 50% | > 50% | < 50% |
| COc1cc(-c2cncc(N[C@@H](C)c3ccc4ccccc4c3)n2)ccc1O [Chemistry 155] | > 50% | > 50% | < 50% |
| COc1cc(-c2cncc(Nc3ccc(F)cc3C)n2)ccc1O [Chemistry 156] | > 50% | > 50% | < 50% |
| COc1cccc([C@H](C)Nc2cncc(-c3ccc(O)c(OC)c3)n2)c1 [Chemistry 158] | > 50% | > 50% | > 50% |
| C[C@H](Nc1cncc(-c2ccc(F)c(Cl)c2)n1)c1ccccc1 [Chemistry 174] | > 50% | > 50% | < 50% |
| C[C@H](Nc1cncc(-c2ccc(O)c(Cl)c2)n1)c1ccccc1 [Chemistry 175] | > 50% | < 50% | < 50% |
| C[C@H](Nc1cncc(-c2ccc(N)cc2)n1)c1ccccc1 [Chemistry 181] | > 50% | > 50% | < 50% |
| COc1cc(-c2cncc(NC(C)c3ccc(-c4ccccc4)cc3)n2)ccc1O (stereo not shown) [Chemistry 185] | > 50% | > 50% | < 50% |
| COc1cc(-c2cncc(NC(C)c3ccc(-n4ccnc4)cc3)n2)ccc1O (stereo not shown) [Chemistry 186] | > 50% | > 50% | < 50% |

| SMILES | inhibition at 50 µM (Tel-Jak3) | inhibition at 50 µM (Tel-Jak2) | inhibition at 50 µM (DU145) |
| --- | --- | --- | --- |
| COc1cc(-c2cncc(NC(C)c3cccnc3)n2)ccc1O (stereo not shown) [Chemistry 187] | > 50% | > 50% | > 50% |
| C[C@H](Nc1cncc(-c2ccc(NS(C)(=O)=O)cc2)n1)c1ccccc1 [Chemistry 192] | > 50% | > 50% | > 50% |
| C[C@H](Nc1cncc(-c2ccc(NC(=O)C3CC3)cc2)n1)c1ccccc1 [Chemistry 193] | > 50% | > 50% | > 50% |
| COc1cc(-c2cncc(NC(C)c3ccncc3)n2)ccc1O (stereo not shown) [Chemistry 200] | > 50% | > 50% | < 50% |
| C[C@H](Nc1cncc(-c2ccc(NS(=O)(=O)c3ccccc3)cc2)n1)c1ccccc1 [Chemistry 226] | > 50% | > 50% | > 50% |
| COc1cc(-c2cncc(NC(C)c3cccc(NC(=O)N4CCN(C)CC4)c3)n2)ccc1O (stereo not shown) [Chemistry 241] | > 50% | > 50% | < 50% |
| COc1cc(-c2cncc(NC(C)c3ccc(-c4ccncc4)cc3)n2)ccc1O (stereo not shown) [Chemistry 266] | > 50% | > 50% | > 50% |
| COc1cc(-c2cncc(NC(C)c3cccc(NC(=O)C4CCCN4)c3)n2)ccc1O (stereo not shown) [Chemistry 267] | > 50% | > 50% | > 50% |
| COc1cc(-c2cncc(NC(C)c3cccc(NC(=O)c4cccnc4)c3)n2)ccc1O (stereo not shown) [Chemistry 268] | > 50% | > 50% | > 50% |
| COc1cc(-c2cncc(NC(C)c3cccc(NC(=O)c4ccncc4)c3)n2)ccc1O (stereo not shown) [Chemistry 269] | > 50% | > 50% | > 50% |
| COc1cc(-c2cncc(NC(C)c3ccc(-c4cccnc4)cc3)n2)ccc1O (stereo not shown) [Chemistry 270] | > 50% | > 50% | > 50% |
| COc1cc(-c2cncc(NC(C)c3cccc(NC(C)=O)c3)n2)ccc1O (stereo not shown) [Chemistry 276] | > 50% | > 50% | < 50% |
| COc1cc(-c2cncc(NC(C)c3ccc(NC(=O)c4ccncc4)cc3)n2)ccc1O (stereo not shown) [Chemistry 279] | > 50% | > 50% | > 50% |
| COc1cc(-c2cncc(NC(C)c3ccc(NC(=O)c4cccnc4)cc3)n2)ccc1O (stereo not shown) [Chemistry 280] | > 50% | > 50% | < 50% |
| COc1cc(-c2cncc(NC(C)c3ccc(NC(=O)C4CCCN4C(=O)OC(C)(C)C)cc3)n2)ccc1O (stereo not shown) [Chemistry 281] | > 50% | > 50% | > 50% |
| COc1cc(-c2cncc(NC(C)c3ccc(NC(=O)CN4CCN(C)CC4)cc3)n2)ccc1O (stereo not shown) [Chemistry 282] | > 50% | > 50% | > 50% |
| COc1cc(-c2cncc(NC(C)c3ccc(NC(=O)N4CCN(C)CC4)cc3)n2)ccc1O (stereo not shown) [Chemistry 283] | > 50% | > 50% | > 50% |
| CCN(CC)CCOc1ccc(C(C)Nc2cncc(-c3ccc(O)c(OC)c3)n2)cc1 (stereo not shown) [Chemistry 285] | > 50% | > 50% | > 50% |
| COc1cc(-c2cncc(NC(C)c3ccc(C#N)cc3)n2)ccc1O (stereo not shown) [Chemistry 303] | > 50% | > 50% | < 50% |

From patent US7122550B2, “Protein kinase inhibitors” (Cytopia Pty Ltd, priority 2002, dated 2006)
